From patent publication US11173145B2, “Compounds useful as inhibitors of indoleamine 2,3-dioxygenase and/or tryptophan dioxygenase” (Board of Regents, The University of Texas System, priority 2017, dated 2021)
pIC50: −log10 of the molar value.

Legend:
IDO1 = molecular target: T1, IDO1 (Homo sapiens, UniProt P14902); assay: IDO1 cell-based assay (HeLa cells, IFNgamma-induced, N-formylkynurenine/L-tryptophan by RFMS); settings: 10 ng/mL IFNgamma, 24 hours
T1 construct: endogenous in cells; host or cells: HeLa cells (ATCC), IFNgamma-induced
Outline: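 HeLa cells stimulated with 10 ng/mL IFNgamma and exposed to compound (0.5% DMSO final) for 24 h at 37 °C. Conditioned media deproteinized, then N-formylkynurenine and L-tryptophan quantified by RapidFire MS with deuterated tryptophan internal standard; IC50 by curve fitting. Viability checked by CellTiter-Glo.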

mouse IDO1 = molecular target: T2, mouse IDO1 (Mus musculus, UniProt P28776); assay: Mouse IDO1 cell-based assay (PANC02 cells, mouse IFNgamma-induced, N-formylkynurenine/L-tryptophan by RFMS); settings: 30 ng/mL mouse IFNgamma, 48 hours
T2 construct: The murine PANC02 pancreatic ductal adenocarcinoma cell line was routinely maintained in DMEM media; endogenous in cells; host or cells: PANC02 murine pancreatic ductal adenocarcinoma cells, induced with mouse IFNgamma
Procedure: The murine PANC02 pancreatic ductal adenocarcinoma cell line was routinely maintained in DMEM media containing 10% FBS. Cells (3,000/well) were seeded onto a 384 well plate in 50 μl of media and incubated at 37° C., 5% CO2 overnight. Cell media was aspirated, fresh media containing 30 ng/mL mouse IFNgamma (Gibco Life Technologies, cat #PMC4031) was added, and cells were incubated in absence or presence of various concentrations of compounds (final 0.5% DMSO) for 48 hours at 37° C., 5% CO2. Aliquots of the cell conditioned media was removed from the cell plate, and mixed with equal volume of 200 mM ZnSO4 to precipitate media containing protein. Two volumes of acetonitrile were added by mixing, and samples were then centrifuged at 2250G for 20 minutes at 4° C. Aliquots of the supernatant were diluted 1:10 in 0.1% formic acid containing 3 μM of deuterated Tryptophan as an internal standard.
Samples were analyzed via RFMS to quantify N-Formyl Kynurenine (AUC) and L-tryptophan (AUC). A C18 cartridge was used with mobile phases of 0.1% Formic Acid and 80% ACN/0.1% Formic Acid under isocratic conditions. Dose-response curves were analyzed using IC50 regression curve fitting (GeneData Screener). Curves were plotted as percent of control and normalized by high controls without inhibitor (100%), and low controls (0%) containing 1 μM of epacadostat. Cell viability was also assessed using the Cell Titer Glo Kit (Promega) following manufacture recommendation.

T1 sequence (P14902 whole entry): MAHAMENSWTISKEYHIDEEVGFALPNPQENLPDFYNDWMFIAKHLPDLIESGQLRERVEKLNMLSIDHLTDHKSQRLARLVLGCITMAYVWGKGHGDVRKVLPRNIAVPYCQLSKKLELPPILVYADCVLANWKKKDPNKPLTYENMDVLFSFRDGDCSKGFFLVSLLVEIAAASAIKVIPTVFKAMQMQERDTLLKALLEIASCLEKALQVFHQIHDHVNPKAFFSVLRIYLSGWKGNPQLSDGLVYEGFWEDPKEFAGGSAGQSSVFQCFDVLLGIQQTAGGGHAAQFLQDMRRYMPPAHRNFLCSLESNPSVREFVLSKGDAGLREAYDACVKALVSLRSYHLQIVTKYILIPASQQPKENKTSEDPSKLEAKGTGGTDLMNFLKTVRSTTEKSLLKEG
T2 sequence (P28776 whole entry): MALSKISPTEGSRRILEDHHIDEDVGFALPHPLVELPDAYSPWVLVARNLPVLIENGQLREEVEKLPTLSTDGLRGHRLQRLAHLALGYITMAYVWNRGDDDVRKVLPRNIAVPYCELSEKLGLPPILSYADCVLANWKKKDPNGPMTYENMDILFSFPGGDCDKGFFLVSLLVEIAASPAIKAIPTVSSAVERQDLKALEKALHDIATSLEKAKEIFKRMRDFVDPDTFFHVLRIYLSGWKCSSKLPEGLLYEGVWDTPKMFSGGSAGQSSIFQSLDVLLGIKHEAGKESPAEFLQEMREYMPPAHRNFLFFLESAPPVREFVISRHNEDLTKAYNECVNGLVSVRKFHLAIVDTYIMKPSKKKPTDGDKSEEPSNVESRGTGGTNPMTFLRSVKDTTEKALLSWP

Row | SMILES | pIC50 (IDO1) | pIC50 (mouse IDO1)
1 | CCC(NC(=O)c1ccc(Cl)cc1)[C@H]1[C@@H]2C[C@@H](n3ccc4ncnc-4c3)C[C@@H]21 (stereo partly drawn) [Compound 198, N-(1-((1R,3s,5S,6r)-3-(5H-imidazo[4,5-c]pyridin-5-yl)bicyclo[3.1.0]hexan-6-yl)propyl)-4-chlorobenzamide] | > 6.70 | 5.70 to 6.30
2 | CCC(NC(=O)c1ccc(Cl)cc1)[C@H]1[C@@H]2C[C@@H](n3cnc(-c4ccccc4)c3)C[C@@H]21 (stereo partly drawn) [Compound 200, 4-chloro-N-(1-((1R,3s,5S,6r)-3-(4-phenyl-1H-imidazol-1-yl)bicyclo[3.1.0]hexan-6-yl)propyl)benzamide] | > 6.70 | 5.70 to 6.30
3 | CCC(NC(=O)c1ccc(Cl)cc1)[C@H]1[C@@H]2C[C@@H](n3ccnc3C)C[C@@H]21 (stereo partly drawn) [Compound 201, 4-chloro-N-(1-((1R,3s,5S,6r)-3-(2-methyl-1H-imidazol-1-yl)bicyclo[3.1.0]hexan-6-yl)propyl)benzamide] | > 6.70 | 5.30 to 5.70
4 | CCC(NC(=O)c1ccc(Cl)cc1)[C@H]1[C@@H]2C[C@@H](n3ncc(-c4ccccc4)n3)C[C@@H]21 (stereo partly drawn) [Compound 204, 4-chloro-N-(1-((1R,3s,5S,6r)-3-(4-phenyl-2H-1,2,3-triazol-2-yl)bicyclo[3.1.0]hexan-6-yl)propyl)benzamide] | > 6.70 | 5.70 to 6.30
5 | CCC(NC(=O)c1ccc(Cl)cc1)[C@H]1[C@@H]2C[C@@H](n3cc4cccc(F)c4n3)C[C@@H]21 (stereo partly drawn) [Compound 205, 4-chloro-N-(1-((1R,3s,5S,6r)-3-(7-fluoro-2H-indazol-2-yl)bicyclo[3.1.0]hexan-6-yl)propyl)benzamide] | > 6.70 | > 6.30
6 | CCC(NC(=O)c1ccc(Cl)cc1)[C@H]1[C@@H]2C[C@@H](n3ncc4cccc(F)c43)C[C@@H]21 (stereo partly drawn) [Compound 206, 4-chloro-N-(1-((1R,3s,5S,6r)-3-(7-fluoro-1H-indazol-1-yl)bicyclo[3.1.0]hexan-6-yl)propyl)benzamide] | > 6.70 | 5.70 to 6.30
7 | CCC(NC(=O)c1ccc(Cl)cc1)[C@H]1[C@@H]2C[C@@H](n3ncc4cc(F)ccc43)C[C@@H]21 (stereo partly drawn) [Compound 208, 4-chloro-N-(1-((1R,3s,5S,6r)-3-(5-fluoro-1H-indazol-1-yl)bicyclo[3.1.0]hexan-6-yl)propyl)benzamide] | > 6.70 | > 6.30
8 | CCC(NC(=O)c1ccc(Cl)cc1)[C@H]1[C@@H]2C[C@@H](n3cc4c(F)cccc4n3)C[C@@H]21 (stereo partly drawn) [Compound 209, 4-chloro-N-(1-((1R,3s,5S,6r)-3-(4-fluoro-2H-indazol-2-yl)bicyclo[3.1.0]hexan-6-yl)propyl)benzamide] | > 6.70 | > 6.30
9 | CCC(NC(=O)c1ccc(Cl)cc1)[C@H]1[C@@H]2C[C@@H](n3ncc4c(F)cccc43)C[C@@H]21 (stereo partly drawn) [Compound 210, 4-chloro-N-(1-((1R,3s,5S,6r)-3-(4-fluoro-1H-indazol-1-yl)bicyclo[3.1.0]hexan-6-yl)propyl)benzamide] | > 6.70 | 5.70 to 6.30
10 | CCC(NC(=O)c1ccc(Cl)cc1)[C@H]1[C@@H]2C[C@@H](n3cc4cccnc4n3)C[C@@H]21 (stereo partly drawn) [Compound 211, N-(1-((1R,3s,5S,6r)-3-(2H-pyrazolo[3,4-b]pyridin-2-yl)bicyclo[3.1.0]hexan-6-yl)propyl)-4-chlorobenzamide] | > 6.70 | > 6.30
11 | CCC(NC(=O)c1ccc(Cl)cc1)[C@H]1[C@@H]2C[C@@H](n3ncc4cccnc43)C[C@@H]21 (stereo partly drawn) [Compound 212, N-(1-((1R,3s,5S,6r)-3-(1H-pyrazolo[3,4-b]pyridin-1-yl)bicyclo[3.1.0]hexan-6-yl)propyl)-4-chlorobenzamide] | > 6.70 | 5.70 to 6.30
12 | CCC(NC(=O)c1ccc(Cl)cc1)[C@H]1[C@@H]2C[C@@H](n3nc4cc(F)cc(F)c4n3)C[C@@H]21 (stereo partly drawn) [Compound 213, 4-chloro-N-(1-((1R,3s,5S,6r)-3-(4,6-difluoro-2H-benzo[d][1,2,3]triazol-2-yl)bicyclo[3.1.0]hexan-6-yl)propyl)benzamide] | > 6.70 | 5.70 to 6.30
13 | CCC(NC(=O)c1ccc(Cl)cc1)[C@H]1[C@@H]2C[C@H](n3cc(COC)nn3)C[C@@H]21 (stereo partly drawn) [Compound 214, 4-chloro-N-(1-((1R,3r,5S,6r)-3-(4-(methoxymethyl)-1H-1,2,3-triazol-1-yl)bicyclo[3.1.0]hexan-6-yl)propyl)benzamide] | > 6.70 | > 6.30
14 | CCC(NC(=O)c1ccc(Cl)cc1)[C@H]1[C@@H]2C[C@H](n3cc(COCCOC)nn3)C[C@@H]21 (stereo partly drawn) [Compound 215, 4-chloro-N-(1-((1R,3r,5S,6r)-3-(4-((2-methoxyethoxy)methyl)-1H-1,2,3-triazol-1-yl)bicyclo[3.1.0]hexan-6-yl)propyl)benzamide] | 5.70 to 6.70 | 5.70 to 6.30
15 | CCOCc1cn([C@H]2C[C@@H]3[C@H](C2)[C@H]3C(CC)NC(=O)c2ccc(Cl)cc2)nn1 (stereo partly drawn) [Compound 216, 4-chloro-N-(1-((1R,3r,5S,6r)-3-(4-(ethoxymethyl)-1H-1,2,3-triazol-1-yl)bicyclo[3.1.0]hexan-6-yl)propyl)benzamide] | > 6.70 | > 6.30
16 | CCC(NC(=O)c1ccc(Cl)cc1)[C@H]1[C@@H]2C[C@@H](NC(C(=O)O)c3ccccc3)C[C@@H]21 (stereo partly drawn) [Compound 217, 2-(((1R,3s,5S,6r)-6-(1-(4-chlorobenzamido)propyl)bicyclo[3.1.0]hexan-3-yl)amino)-2-phenylacetic acid] | < 5.30 | < 5.30
17 | CCC(NC(=O)c1ccc(Cl)cc1)[C@H]1[C@@H]2C[C@@H](NC(=O)c3ncccc3Cl)C[C@@H]21 (stereo partly drawn) [Compound 218, 3-chloro-N-((1R,3s,5S,6r)-6-(1-(4-chlorobenzamido)propyl)bicyclo[3.1.0]hexan-3-yl)picolinamide] | > 6.70 | 5.70 to 6.30
18 | CCC(NC(=O)c1ccc(Cl)cc1)[C@H]1[C@@H]2C[C@H](NC(=O)c3ncccc3F)C[C@@H]21 (stereo partly drawn) [Compound 220, N-((1R,3r,5S,6r)-6-(1-(4-chlorobenzamido)propyl)bicyclo[3.1.0]hexan-3-yl)-3-fluoropicolinamide] | > 6.70 | > 6.30
19 | CCC(NC(=O)c1ccc(Cl)cc1)[C@H]1[C@@H]2C[C@H](NC(=O)c3ccc(F)cn3)C[C@@H]21 (stereo partly drawn) [Compound 221, N-((1R,3r,5S,6r)-6-(1-(4-chlorobenzamido)propyl)bicyclo[3.1.0]hexan-3-yl)-5-fluoropicolinamide] | > 6.70 | > 6.30
20 | CCC(NC(=O)c1ccc(Cl)cc1)[C@H]1[C@@H]2C[C@H](NC(=O)c3nccc(C(F)(F)F)c3Cl)C[C@@H]21 (stereo partly drawn) [Compound 222, 3-chloro-N-((1R,3r,5S,6r)-6-(1-(4-chlorobenzamido)propyl)bicyclo[3.1.0]hexan-3-yl)-4-(trifluoromethyl)picolinamide] | 5.70 to 6.70 | 5.70 to 6.30
21 | CCC(NC(=O)c1ccc(Cl)cc1)[C@H]1[C@@H]2C[C@@H](NC(=O)c3cccnc3C)C[C@@H]21 (stereo partly drawn) [Compound 223, N-((1R,3s,5S,6r)-6-(1-(4-chlorobenzamido)propyl)bicyclo[3.1.0]hexan-3-yl)-2-methylnicotinamide] | > 6.70 | < 5.30
22 | CCC(NC(=O)c1ccc(Cl)cc1)[C@H]1[C@@H]2C[C@@H](NC(C(=O)NC)c3ccccc3)C[C@@H]21 (stereo partly drawn) [Compound 224, 4-chloro-N-(1-((1R,3s,5S,6r)-3-((2-(methylamino)-2-oxo-1-phenylethyl)amino)bicyclo[3.1.0]hexan-6-yl)propyl)benzamide] | 5.30 to 5.70 | < 5.30
23 | CCC(NC(=O)c1ccc(Cl)cc1)[C@H]1[C@@H]2C[C@@H](NC(=O)c3cc(C(F)(F)F)ccn3)C[C@@H]21 (stereo partly drawn) [Compound 225, N-((1R,3s,5S,6r)-6-(1-(4-chlorobenzamido)propyl)bicyclo[3.1.0]hexan-3-yl)-4-(trifluoromethyl)picolinamide] | > 6.70 | 5.30 to 5.70
24 | CCC(NC(=O)c1ccc(Cl)cc1)[C@H]1[C@@H]2C[C@@H](Nc3ccccn3)C[C@@H]21 (stereo partly drawn) [Compound 226, 4-chloro-N-(1-((1R,3s,5S,6r)-3-(pyridin-2-ylamino)bicyclo[3.1.0]hexan-6-yl)propyl)benzamide] | > 6.70 | > 6.30
25 | CCC(NC(=O)c1ccc(Cl)cc1)[C@H]1[C@@H]2C[C@@H](Nc3ccc(F)cn3)C[C@@H]21 (stereo partly drawn) [Compound 227, 4-chloro-N-(1-((R, 3s, 5S, 6r)-3-((5-fluoropyridin-2-yl)amino)bicyclo[3.1.0]hexan-6-yl)propyl)benzamide] | > 6.70 | 5.70 to 6.30
26 | CCC(NC(=O)c1ccc(Cl)cc1)[C@H]1[C@@H]2C[C@@H](C(C(=O)O)c3ccccc3)C[C@@H]21 (stereo partly drawn) [Compound 228, 2-((1R,3s, 5S, 6r)-6-(1-(4-chlorobenzamido)propyl)bicyclo[3.1.0]hexan-3-yl)-2-phenylacetic acid] | 5.30 to 5.70 | 5.30 to 5.70
